Molecules are shown by their SMILES.

This assay deals with SHP2 (Homo sapiens (Human), UniProt Q06124). Put plainly: SHP2 allosteric inhibition assay (DiFMUP prompt fluorescence). Type of assay: biochemical. The conditions noted are these: 0.25 nM SHP2 activated with 0.5 μM peptide IRS1_pY1172(dPEG8)pY1222; substrate DiFMUP.
Chain of SHP2 (Q06124 whole entry): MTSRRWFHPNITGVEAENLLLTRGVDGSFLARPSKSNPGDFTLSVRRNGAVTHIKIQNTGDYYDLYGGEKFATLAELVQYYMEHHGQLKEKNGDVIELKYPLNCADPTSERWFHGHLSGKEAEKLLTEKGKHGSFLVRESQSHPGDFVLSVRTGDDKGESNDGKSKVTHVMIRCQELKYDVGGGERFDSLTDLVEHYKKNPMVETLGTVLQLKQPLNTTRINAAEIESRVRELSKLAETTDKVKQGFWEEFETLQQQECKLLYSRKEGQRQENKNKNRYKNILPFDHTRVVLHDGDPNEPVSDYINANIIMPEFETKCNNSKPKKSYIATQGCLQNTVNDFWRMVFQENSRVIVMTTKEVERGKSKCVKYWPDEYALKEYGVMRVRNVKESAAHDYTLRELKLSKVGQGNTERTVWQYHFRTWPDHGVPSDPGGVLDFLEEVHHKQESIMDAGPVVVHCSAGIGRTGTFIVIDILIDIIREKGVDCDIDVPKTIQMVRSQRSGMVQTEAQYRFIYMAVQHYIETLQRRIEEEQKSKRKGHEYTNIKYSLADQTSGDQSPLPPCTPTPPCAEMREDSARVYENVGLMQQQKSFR
`N[C@@H]1c2ccccc2CC12CCN(c1cnc(SC3CCOCC3)cn1)CC2` [Example 185, (S)-1′-(5-((tetrahydro-2H-pyran-4-yl)thio)pyrazin-2-yl)-1,3-dihydrospiro[indene-2,4′-piperidin]-1-amine] returned an IC50 of 1000 to 10000 nM.

Consider `Cc1nc2c(N3CCC(F)(F)CC3)n[nH]c2nc1N1CCC2(CC1)Cc1ccccc1[C@H]2N` [Example 186, (3S)-1′-[3-(4,4-difluoropiperidin-1-yl)-5-methyl-1H-pyrazolo[3,4-b]pyrazin-6-yl]-1,3-dihydrospiro[indene-2,4′-piperidin]-3-amine], for which the IC50 is no more than 50 nM.

Compound `Nc1nccc(Oc2cnc(N3CCC4(CC3)Oc3ccccc3[C@H]4N)cn2)c1Cl` [Example 187, (3R)-1′-{5-[(2-amino-3-chloropyridin-4-yl)oxy]pyrazin-2-yl}-3H-spiro[1-benzofuran-2,4′-piperidin]-3-amine] came in with an IC50 of no more than 50 nM.

In turn, `N[C@@H]1c2ccccc2CC12CCN(c1cnc3c(ccn3-c3cccc4ncccc34)n1)CC2` [Example 192, (3S)-1′-[5-(quinolin-5-yl)-5H-pyrrolo[2,3-b]pyrazin-2-yl]-1,3-dihydrospiro[indene-2,4′-piperidin]-3-amine] showed an IC50 of 1000 to 10000 nM.

For the compound `Cc1nc2c(ccn2C2=CCOCC2)nc1N1CCC2(CC1)Cc1ccccc1[C@H]2N` [Example 193, (3S)-1′-[5-(3,6-dihydro-2H-pyran-4-yl)-3-methyl-5H-pyrrolo[2,3-b]pyrazin-2-yl]-1,3-dihydrospiro[indene-2,4′-piperidin]-3-amine], the IC50 was no more than 50 nM.

Consider `Cc1nc2c(ccn2-c2cccc3ncccc23)nc1N1CCC2(CC1)Cc1ccccc1[C@H]2N` [Example 194, (3S)-1′-[3-methyl-5-(quinolin-5-yl)-5H-pyrrolo[2,3-b]pyrazin-2-yl]-1,3-dihydrospiro[indene-2,4′-piperidin]-3-amine], for which the IC50 is no more than 50 nM.

Turning to `N[C@@H]1c2ccccc2CC12CCN(c1ncnc3c1cnn3-c1ccccc1)CC2` [Example 195, (3S)-1′-{1-phenyl-1Hpyrazolo[3,4-d]pyrimidin-4-yl}-1,3-dihydrospiro[indene-2,4′-piperidin]-3-amine], the half-maximal inhibitory concentration (IC50) is no more than 50 nM.

`Cc1nc(N2CCCc3ncccc32)cnc1N1CCC2(CC1)Cc1ccccc1[C@H]2N` [Example 196] had a concentration for half-maximal inhibition (IC50) of no more than 50 nM.

In turn, `Cc1nc(N2CCC3(CC2)Cc2ccccc2[C@H]3N)cnc1N1CCCc2ncccc21` [Example 197] came in with a 50% inhibitory concentration (IC50) of no more than 50 nM.

Turning to `N[C@@H]1c2ccccc2CC12CCN(c1cnc(OCc3cccc4cccnc34)cn1)CC2` [Example 198], the concentration for half-maximal inhibition (IC50) was greater than 10000 nM.

`Cc1c(NCc2cccnc2)ccnc1N1CCC2(CC1)Cc1ccccc1[C@H]2N` [Example 199]: the IC50 is no more than 50 nM.

With `Cn1nccc1-c1cc(N2CCC3(CC2)Cc2ccccc2[C@H]3N)cn2ccnc12` [Example 201], the 50% inhibitory concentration (IC50) was no more than 50 nM.

`N[C@@H]1c2ccccc2CC12CCN(c1cc(OC(F)F)c3nccn3c1)CC2` [Example 202] yielded a concentration for half-maximal inhibition (IC50) of no more than 50 nM.

With `Cc1nc2c(cnn2-c2cccc3c(=O)n(C)ccc23)nc1N1CCC2(CC1)Oc1ccccc1[C@H]2N` [Example 203], the IC50 is no more than 50 nM.

`N[C@@H]1c2ccccc2CC12CCN(C(=O)c1csc(N3CCCCC3)n1)CC2` [Example 204] came in with an IC50 of no more than 50 nM.

`Cn1c(N2CCC3(CC2)Cc2ccccc2[C@H]3N)ncc(N2CCCc3ccccc32)c1=O` [Example 205] yielded an IC50 of 50 to 1000 nM.

With `Cn1c(N2CCC3(CC2)Cc2ccccc2[C@H]3N)ccc(N2CCCc3ccccc32)c1=O` [Example 206], the concentration for half-maximal inhibition (IC50) is no more than 50 nM.

In turn, `Cc1c(N2CCCc3ccccc32)nc2sc(N3CCC4(CC3)Cc3ccccc3[C@H]4N)nn12` [Example 207] returned a half-maximal inhibitory concentration (IC50) of 1000 to 10000 nM.

Compound `Cc1nc2c(N3CCCCC3)n[nH]c2nc1N1CCC2(CC1)Oc1ccc(F)cc1[C@H]2N` [Example 208] displayed an IC50 of 1000 to 10000 nM.

`N[C@@H]1c2ccccc2CC12CCN(c1ccc3c(N4CCCCC4)n[nH]c3n1)CC2` [Example 209] came in with an IC50 of 1000 to 10000 nM.

`N[C@@H]1c2ccccc2CC12CCN(c1ncc(N3CCCc4ccccc43)c(=O)[nH]1)CC2` [Example 210] yielded an IC50 greater than 10000 nM.

Regarding `N[C@@H]1c2ccccc2CC12CCN(c1ncc(N3CCCc4ncccc43)nc1CO)CC2` [Example 211, {3-[(3S)-3-amino-1,3-dihydrospiro[indene-2,4′-piperidin]-1′-yl]-6-(1,2,3,4-tetrahydro-1,5-naphthyridin-1-yl)pyrazin-2-yl}methanol], the concentration for half-maximal inhibition (IC50) fell in the range of 50 to 1000 nM.

In turn, `N[C@@H]1c2ccccc2CC12CCN(c1ncc(N3CCCc4ccccc43)nc1CO)CC2` [Example 212, {3-[(3S)-3-amino-1,3-dihydrospiro[indene-2,4′-piperidin]-1′-yl]-6-(1,2,3,4-tetrahydroquinolin-1-yl)pyrazin-2-yl}methanol] yielded a half-maximal inhibitory concentration (IC50) of no more than 50 nM.

The compound `N[C@@H]1c2ccccc2CC12CCN(c1ncc(N3CCc4ccccc43)nc1CO)CC2` [Example 213, (S)-(3-(1-amino-1,3-dihydrospiro[indene-2,4′-piperidin]-1′-yl)-6-(indolin-1-yl)pyrazin-2-yl) methanol] returned an IC50 of 50 to 1000 nM.

Regarding `N[C@@H]1c2ccccc2CC12CCN(c1ncc(N3CCCCc4ccccc43)nc1CO)CC2` [Example 214, (S)-(3-(1-amino-1,3-dihydrospiro[indene-2,4′-piperidin]-1′-yl)-6-(2,3,4,5-tetrahydro-1H-benzo[b]azepin-1-yl)pyrazin-2-yl)methanol], the half-maximal inhibitory concentration (IC50) was no more than 50 nM.

For the compound `Cc1nc(N2CCC3(CC2)Cc2ccccc2[C@H]3N)c(C)nc1Sc1ccnc(N)c1Cl` [Example 215], the IC50 is no more than 50 nM.

In the case of `Nc1nccc(Sc2ccc(N3CCC4(CC3)Oc3ccccc3[C@H]4N)cn2)c1Cl` [Example 216], the IC50 is 50 to 1000 nM.

In turn, `Nc1nccc(Sc2ccc(N3CCC4(CC3)Cc3cc(F)ccc3[C@H]4N)cn2)c1Cl` [Example 217] registered an IC50 of no more than 50 nM.

In the case of `Nc1nccc(Sc2ccc(N3CCC4(CC3)Cc3ccc(F)cc3[C@H]4N)cn2)c1Cl` [Example 218], the half-inhibitory concentration (IC50) was no more than 50 nM.

For `Cc1cc(N2CCC3(CC2)Cc2ccccc2[C@H]3N)cnc1Sc1ccnc(N)c1Cl` [Example 219], the concentration for half-maximal inhibition (IC50) is no more than 50 nM.

For `N#Cc1nc(Sc2ccnc(Cl)c2Cl)cnc1N1CCC2(CC1)Cc1ccccc1[C@H]2N` [Example 220], the concentration for half-maximal inhibition (IC50) is no more than 50 nM.

With `Nc1nccc(Sc2cnc3c(n2)OC[C@H]2C[C@@]4(CCN32)Oc2ccccc2[C@@H]4N)c1Cl` [Example 221], the 50% inhibitory concentration (IC50) is no more than 50 nM.

`Nc1nccc(Sc2cnc3c(n2)OC[C@H]2C[C@@]4(CCN32)Oc2ccccc2[C@H]4N)c1Cl` [Example 222] came in with a concentration for half-maximal inhibition (IC50) of no more than 50 nM.

Turning to `Cc1c(Sc2ccnc(N)c2Cl)nc2sc(N3CCC4(CC3)Cc3ccccc3[C@H]4N)nn12` [Example 223], the half-maximal inhibitory concentration (IC50) is no more than 50 nM.

The compound `Nc1nccc(Sc2ccc(N3CCC4(CC3)Oc3cc(F)ccc3[C@H]4N)cn2)c1Cl` [Example 224] showed a half-inhibitory concentration (IC50) of 50 to 1000 nM.

Compound `Nc1nccc(Sc2ccc(N3CCC4(CC3)Oc3ccc(F)cc3[C@H]4N)cn2)c1Cl` [Example 225] showed an IC50 greater than 10000 nM.

`CNC(=O)c1cc(C)nc(N2CCC3(CC2)Cc2ccccc2[C@H]3N)c1` [Example 228] registered an IC50 greater than 10000 nM.

`N[C@@H]1c2ccccc2CC12CCN(C1=Nc3ncc(C4CC4)cc3C1)CC2` [Example 229] had an IC50 of no more than 50 nM.

The compound `N[C@@H]1c2ccccc2CC12CCN(c1cc(C(F)(F)F)c3nncn3n1)CC2` [Example 230] gave a 50% inhibitory concentration (IC50) of 1000 to 10000 nM.

The compound `Nc1nccc(Sc2cnc(C34C[C@@H]5C[C@@]6(Cc7ccccc7[C@H]6N)C[C@H](C3)N54)cn2)c1Cl` (stereo partly shown) [Example 231] returned a 50% inhibitory concentration (IC50) greater than 10000 nM.

In turn, `Nc1nccc(Sc2cnc(C34C[C@@H]5C[C@@]6(C[C@H](C3)N54)Oc3ccccc3[C@H]6N)cn2)c1Cl` (stereo partly shown) [Example 232] returned an IC50 of no more than 50 nM.

As for `N[C@@H]1c2ccccc2CC12CCN(c1cnc(SC3CCCCC3)cn1)CC2` [Example 233, (3S)-1′-[5-(cyclohexylsulfanyl)pyrazin-2-yl]-1,3-dihydrospiro[indene-2,4′-piperidin]-3-amine], the IC50 is no more than 50 nM.

As for `N[C@@H]1c2ccccc2CC12CCN(c1cnc(S[C@@H]3CCOC3)cn1)CC2` [Example 235], the 50% inhibitory concentration (IC50) is greater than 10000 nM.

`N[C@@H]1c2ccccc2CC12CCN(c1cnc(SC3CCC3)cn1)CC2` [Example 236] registered an IC50 of no more than 50 nM.

`N[C@@H]1c2ccccc2CC12CCN(c1ncc(SCC3CC3)c(=O)[nH]1)CC2` [Example 237]: the IC50 is no more than 50 nM.

`Cn1c(N2CCC3(CC2)Cc2ccccc2[C@H]3N)ncc(SCC2CC2)c1=O` [Example 238] came in with an IC50 of no more than 50 nM.

As to `N[C@@H]1c2cc(F)ccc2OC12CCN(c1cnc(SCC3CC3)cn1)CC2` [Example 239], the half-inhibitory concentration (IC50) was in the range of 50 to 1000 nM.

Turning to `N[C@@H]1c2ccc(F)cc2OC12CCN(c1cnc(SCC3CC3)cn1)CC2` [Example 240], the concentration for half-maximal inhibition (IC50) was no more than 50 nM.

`N[C@@H]1c2ccccc2CC12CCN(c1cnc(SC3CC3)cn1)CC2` [Example 241, (S)-1′-(5-(cyclopropylthio)pyrazin-2-yl)-1,3-dihydrospiro[indene-2,4′-piperidin]-1-amine] showed a 50% inhibitory concentration (IC50) of no more than 50 nM.

In turn, `Cn1c(N2CCC3(CC2)Cc2ccccc2[C@H]3N)ncc(Sc2cccc(Cl)c2Cl)c1=O` [Example 242, (S)-2-(1-amino-1,3-dihydrospiro[indene-2,4′-piperidin]-1′-yl)-5-((2,3-dichlorophenyl)thio)-3-methylpyrimidin-4(3H)-one] came in with an IC50 of no more than 50 nM.

With `N[C@@H]1c2ccccc2CC12CCN(c1ncc(SCC3CC3)nc1CO)CC2` [Example 244, (S)-(3-(1-amino-1,3-dihydrospiro[indene-2,4′-piperidin]-1′-yl)-6-((cyclopropylmethyl)thio)pyrazin-2-yl)methanol], the IC50 is no more than 50 nM.

On to `Cc1nc2c(N3CCCc4c3ccn(C)c4=O)n[nH]c2nc1N1CCC2(CC1)Cc1cc(F)ccc1[C@H]2N` [Example 245], for which the IC50 lay within 1000 to 10000 nM.

For orientation: IC50 means the concentration that gives 50% inhibition. The low end stands for greater potency, the high end for weaker potency.

The record behind these values is patent US10934302B1, “SHP2 phosphatase inhibitors and methods of use thereof” (Relay Therapeutics, Inc., priority 2018, dated 2021).
